Values of other authors as cited in PubChem BioAssay AID1259409 (Chemical Carcinogenesis Research Information System (CCRIS), 2018).

Test system: rodent chemically induced tumor inhibition, incidence and multiplicity
Test: CCRIS tumor inhibitor studies

SMILES | tumour outcome (control, treated, inhibition, significance) (Carcinogen: N-METHYL-N'-NITRO-N-NITROSOGUANIDINE [70-25-7], Dose [Inhibitor]: 100 MG/KG BW AQUALEN (ACTIVATED CARBON FIBER ADSORBENT) IN DIET 5X/WK FOR 16 MONTHS (STUDY DURATION: 16 MONTHS), Route [Inhibitor]: ORAL, Species: RAT, Strain/Sex: LIO/FEMALE, Target Tissue: Type of Lesion: DUODENUM: ADENOCARCINOMA, Dose [Carcinogen]: 100 MG/L IN DRINKING WATER 5X/WK FOR 12 MONTHS (STUDY DURATION: 16 MONTHS), Promoter: NONE) | tumour outcome (control, treated, inhibition, significance) (Carcinogen: N-METHYL-N'-NITRO-N-NITROSOGUANIDINE [70-25-7], Dose [Inhibitor]: 100 MG/KG BW AQUALEN (ACTIVATED CARBON FIBER ADSORBENT) IN DIET 5X/WK FOR 16 MONTHS (STUDY DURATION: 16 MONTHS), Route [Inhibitor]: ORAL, Species: RAT, Strain/Sex: LIO/FEMALE, Target Tissue: Type of Lesion: LIVER: CYSTOCHOLANGIOMA, Dose [Carcinogen]: 100 MG/L IN DRINKING WATER 5X/WK FOR 12 MONTHS (STUDY DURATION: 16 MONTHS), Promoter: NONE) | tumour outcome (control, treated, inhibition, significance) (Carcinogen: N-METHYL-N'-NITRO-N-NITROSOGUANIDINE [70-25-7], Dose [Inhibitor]: 100 MG/KG BW AQUALEN (ACTIVATED CARBON FIBER ADSORBENT) IN DIET 5X/WK FOR 16 MONTHS (STUDY DURATION: 16 MONTHS), Route [Inhibitor]: ORAL, Species: RAT, Strain/Sex: LIO/FEMALE, Target Tissue: Type of Lesion: STOMACH: CARCINOMA IN SITU, Dose [Carcinogen]: 100 MG/L IN DRINKING WATER 5X/WK FOR 12 MONTHS (STUDY DURATION: 16 MONTHS), Promoter: NONE) | tumour outcome (control, treated, inhibition, significance) (Carcinogen: N-METHYL-N'-NITRO-N-NITROSOGUANIDINE [70-25-7], Dose [Inhibitor]: 100 MG/KG BW AQUALEN (ACTIVATED CARBON FIBER ADSORBENT) IN DIET 5X/WK FOR 16 MONTHS (STUDY DURATION: 16 MONTHS), Route [Inhibitor]: ORAL, Species: RAT, Strain/Sex: LIO/FEMALE, Target Tissue: Type of Lesion: STOMACH: INVASIVE ADENOCARCINOMA, Dose [Carcinogen]: 100 MG/L IN DRINKING WATER 5X/WK FOR 12 MONTHS (STUDY DURATION: 16 MONTHS), Promoter: NONE) | tumour outcome (control, treated, inhibition, significance) (Carcinogen: 7,12-DIMETHYLBENZ[A]ANTHRACENE, 57-97-6, Dose [Inhibitor]: 0, 1.1 UMOL 1/WK FOR 27 WK APPLIED 1 HR POST EACH PROMOTER DOSE (STUDY DURATION: 27 WK), Route [Inhibitor]: DERMAL, Species: MOUSE, Strain/Sex: SENCAR/FEMALE, Target Tissue: Type of Lesion: SKIN: PAPILLOMA, Dose [Carcinogen]: 25 NMOL ONCE, Promoter: CHRYSAROBIN, 491-58-7) | tumour outcome (control, treated, inhibition, significance) (Carcinogen: 7,12-DIMETHYLBENZ[A]ANTHRACENE, 57-97-6, Dose [Inhibitor]: 0, 4.4 UMOL 1/WK FOR 27 WK APPLIED 1 HR POST EACH PROMOTER DOSE (STUDY DURATION: 27 WK), Route [Inhibitor]: DERMAL, Species: MOUSE, Strain/Sex: SENCAR/FEMALE, Target Tissue: Type of Lesion: SKIN: PAPILLOMA, Dose [Carcinogen]: 25 NMOL ONCE, Promoter: CHRYSAROBIN, 491-58-7)
C | 2/14 (14.3%), 0/13 (0.0%), 100%, not significant | 2/14 (14.3%), 0/13 (0.0%), 100%, not significant | 1/14 (7.1%), 4/13 (30.8%), -334%, not significant | 5/14 (35.7%), 1/13 (7.7%), 78%, p<0.05 | – | –
CCN(CC)CCCCCCCCOC(=O)c1cc(OC)c(OC)c(OC)c1 | – | – | – | – | 85%, 73%, 14%, not significant | 85%, 82%, 4%, not significant
